Values joined by “and” are separate entries in the source; they are usually repeats but may differ in a detail not shown here. Identical values can stand only once. “Also recorded” adds a separate entry of the source.
Experiments:
[1] = target: T1, Neprilysin (NEP) (Homo sapiens, UniProt P08473); assay: Neprilysin inhibition assay (Mca-[…](Dpn) FRET substrate); type: biochemical
T1 construct: purchased Enzo Life Sciences
Description: Single concentration studies at 10 μM: Neprilysin inhibition assays were performed as described previously. The substrate Mca-[…](Dpn) and endopeptidase NEP were purchased from Enzo Life Sciences. […] Plate was mixed with a plate shaker at 1500 rpm for 30 seconds. The reaction was started with the addition of 6 μM of the FRET substrate and mixed for another 30 seconds at 1500 rpm. Mca fluorescence is quenched by Dpn until cleavage at Phe by NEP. The accumulation of the Mca was measured by exciting at 320 nm and reading the fluorescence at 405 nm on a Molecular Devices M5e plate reader for 40 minutes at room temperature. Percent inhibition is calculated in GraphPad Prism software using slopes in the linear range for each inhibitor at 10 μM.
Dose-Response Studies for NEP: Neprilysin inhibition assays were performed as described previously. The substrate Mca-[…](Dpn) and endopeptidase NEP were purchased from Enzo Life Sciences. Briefly, 0.5 nM NEP was incubated with 0.5 μL inhibitor. Compounds were tested at 3× dilutions from 100 μM final concentration in 50 mM HEPES pH 6.5 in 50 μL total volume in a black 384-well plate. Plate was mixed with a plate shaker at 1500 rpm for 30 seconds. The reaction was started with the addition of 6 μM of the FRET substrate and mixed for another 30 seconds at 1500 rpm. Mca fluorescence is quenched by Dpn until cleavage at Phe by NEP. The accumulation of the Mca was measured by exciting at 320 nm and reading the fluorescence at 405 nm on a Molecular Devices M5e plate reader for 40 minutes at room temperature. Steady state velocities were used to determine IC50 values by fitting the velocities vs. inhibitor concentration to the sigmoidal concentration-response curve (variable slope) using GraphPad Prism.

[2] = system: male CF1 mice; assay: Hot-plate test (acute thermal pain)
Description: The hot plate was the top surface of an enclosed cylindrical glass bath through which thermostatically controlled hot water was circulated. Under the conditions used, the temperature of the surface of the cylinder was maintained at 55° C. […] Reaction times were also determined twice for each mouse at 15-min intervals half an hour before injecting the drug to establish a baseline reaction time control value. Mice having a mean reaction time greater than 13 seconds were excluded as non-responders.
In this transient pain model, a thermal analgesiometer hot-plate was utilized for the determination of antinociceptive potency of test compounds against acute thermal stimulus. Mice were administered compounds via intraperitoneal (i.p.) or intracerebroventricular (i.c.v.) routes. […] The results are expressed as a percent of the maximum possible effect (% MPE) according to the equation: % MPE=[(Post-drug latency−Pre-drug latency)/(Cutoff−Pre-drug latency)]×100.
The hot-plate was the top surface of an enclosed cylindrical glass bath through which thermostatically controlled hot water was circulated. Under the conditions used, the temperature of the surface of the cylinder was maintained at 55° C. […] Test compounds were administered via intraperitoneal (i.p.) or intracerebroventricular (i.c.v.) routes. […] Animals with a mean reaction time greater than 13 seconds were excluded as non-responders.

[3] = system: mice; assay: Acetic acid writhing test (persistent pain); type: in vivo, mouse
Description: Acclimatized animals are treated systemically with a dilute solution of acetic acid inducing abdominal constrictions (writhes) or extension of hind limbs in the animal. The writhes and extensions are counted within a predetermined period of time to analyze the efficacy of the test compound. […] Percent inhibition is calculated according to the equation: % Inhibition=[(Mean number of writhes for control−Mean number of writhes for test compound)/(Mean number of writhes for control)]×100.
The mice were given vehicle or test compounds 15 min before acetic acid administration. Subsequently, all the groups of mice were injected with 1% (10 mL/kg) acetic acid solution intraperitoneally to induce writhing. The animals display characteristic movements such as extension of hind limb, abdominal constriction, and trunk twisting movement called writhing. The numbers of writhing episodes in 30 min period beginning at the time of the acetic acid administration were counted. […] APAP was dissolved in saline. Both test compounds were delivered intraperitoneally to the test animals.

[4] = system: male CF-1 mice; assay: Tail-flick assay (acute thermal pain); type: in vivo; details: i.c.v. 100 μg per mouse, 15-90 min
Description: The Tail-Flick test comprises of acute nociception in which the tail of the test animal is thermally stimulated. The time it takes for the animal to either flick or withdraw its tail is recorded as a measure of the response to the thermal stimuli. For this test, mice were gently restrained in a cloth; the tail-flick beam was centered on the dorsal surface of the tail (about 15 mm from the end of the tail). The heat source was activated, and the latency for withdrawal of the tail was recorded. The intensity of the tail-flick beam was adjusted so that the average withdrawal time of the baseline measurement was 2 to 4 sec. For each animal, a baseline response latency was determined in two consecutive responses measured at 5 minute intervals. Animals were tested at 15, 30, 45, 60, 75, and 90 minutes after drug administration.
While hot-plate method is more sensitive at supraspinal level, the tail-flick method mostly embodies a spinal reflex response to noxious stimuli. […] The time it takes for the animal to either flick or withdraw its tail is recorded as a measure of the response to the stimuli. […]
Columbus Instruments tail-flick analgesiometer was employed for this experiment. […] The heat source was activated, and the latency for withdrawal of the tail recorded. […] For each animal, a baseline response latency was determined in two consecutive responses measured at 5 min intervals. […]

[5] = system: mice; assay: Co-administration of opioid antagonist naloxone in hot-plate and tail-flick assays; type: in vivo, mouse
Description: Naloxone dissolved in saline was either administered subcutaneously (s.c.; dosage: 5 mg/Kg) via an injection to the interscapular skin, or it was given intracerebroventricularly (5 μg per mouse).
Naloxone is a broad-spectrum opioid receptor antagonist. It is known to interact with, mu- (μ-), delta- (δ-), and kappa- (κ-) opioid receptors, with highest affinity for the μ receptors. […] Naloxone dissolved in saline was delivered subcutaneously (s.c.) via an injection to the interscapular skin.
5 mg/Kg naloxone dissolved in saline was administered subcutaneously (s.c.) via an injection to the interscapular skin. Analgesic efficacy for various time-points was determined in hot-plate and tail-flick assays as detailed above.

T1 sequence (P08473 whole entry, species assumed): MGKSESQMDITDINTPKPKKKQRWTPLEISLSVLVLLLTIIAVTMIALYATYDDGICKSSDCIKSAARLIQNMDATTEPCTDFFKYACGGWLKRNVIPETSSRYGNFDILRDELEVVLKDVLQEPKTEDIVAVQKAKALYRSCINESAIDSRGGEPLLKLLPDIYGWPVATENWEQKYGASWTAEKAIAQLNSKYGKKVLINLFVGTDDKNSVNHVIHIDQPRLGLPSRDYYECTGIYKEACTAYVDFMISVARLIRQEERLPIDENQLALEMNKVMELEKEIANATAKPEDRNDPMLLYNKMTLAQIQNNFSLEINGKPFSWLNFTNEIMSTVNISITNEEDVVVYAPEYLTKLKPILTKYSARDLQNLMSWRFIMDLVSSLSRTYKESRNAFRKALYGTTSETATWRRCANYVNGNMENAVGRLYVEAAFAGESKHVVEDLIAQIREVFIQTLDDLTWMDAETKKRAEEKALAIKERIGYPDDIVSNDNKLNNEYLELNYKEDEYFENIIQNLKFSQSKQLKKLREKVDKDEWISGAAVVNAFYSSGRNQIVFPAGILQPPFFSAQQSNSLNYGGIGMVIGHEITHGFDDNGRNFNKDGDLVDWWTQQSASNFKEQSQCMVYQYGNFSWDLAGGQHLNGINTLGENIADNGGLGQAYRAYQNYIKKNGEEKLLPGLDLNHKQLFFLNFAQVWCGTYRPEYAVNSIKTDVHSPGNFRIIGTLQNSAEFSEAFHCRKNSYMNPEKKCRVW

CC(C)C[C@@H](C(=O)N[C@H](C(=O)OC1CCCC1)c1ccccc1)[C@H](O)C(=O)NO [Tosedostat]
IC50 ([1]; dose response, 3x dilutions from 100 μM): 0.9 µM and 0.89 µM
inhibition at 10 µM ([1]; inhibitor 10 μM, read-out: NEP @ 10 μM (percent inhibition)): 79%
analgesic effect (% MPE time course) ([2]; i.c.v. 100 μg per mouse, 15-90 min post injection): did not show analgesic effect; also recorded: nominal analgesic effect; also recorded: did not register substantial analgesic outcome; also recorded: ineffective in furnishing an antinociceptive response
analgesic effect, single time-point ([2]; i.c.v. 100 μg per mouse, 15 minutes after injection): nominal analgesic effect
analgesic response in hot-plate compared to tail-flick experiments ([2]; i.p., over the course of 90 minutes): about two-fold better analgesic response
dosage required for analgesic effect equivalent to 200 mg/Kg APAP ([3]; i.p.): 1 mg/kg
inhibition of writhings ([3]; i.p. 50 mg/Kg): > 90%
attenuation of writhing episodes compared to control groups ([3]; i.p., 30-minute count after acetic acid): significant attenuation of writhing episodes in a dose-dependent manner
analgesic effect [4]: does not impart analgesic effect; also recorded: does not prompt a potent analgesic effect; also recorded: ineffective in furnishing an antinociceptive response
effect of centrally administered naloxone on analgesic response of tosedostat ([5]; tosedostat 58.1 mg/Kg i.p. + naloxone 5 μg per mouse i.c.v.): no attenuation of analgesic response
effect of subcutaneous naloxone on analgesic action of tosedostat ([5]; tosedostat 58.1 mg/Kg i.p. + naloxone 5 mg/Kg s.c.): partially blocked the analgesic action
